In patent US20260306463A1, “SIK INHIBITORS TO TREAT CHRONIC KIDNEY DISEASE” (The General Hospital Corporation, priority 2023, published 2026):
Entries after “also recorded” stand apart in the source; their conditions may differ.

Assays:
human kidney organoids [1] = assay: cisplatin injury of human kidney organoids: immunostaining, organoid size; assay type: cell-based; details: intermittent cisplatin, 5 treatments; for proximal tubule cells: confocal microscopy
Description: FIG. 7. SK-124 preserves human kidney organoid integrity in cisplatin injury model. Human kidney organoids derived from H9 embryonic stem cells were treated with intermittent cisplatin (5 separate treatments) based on published protocols along with the indicated agent. Organoids were cryo-sectioned and immuno-stained with the indicated markers. The top panels show low power images and the bottom panels focus on regions of proximal tubule cells. The graph measures the mean diameter of organoids in the control (no cisplatin), cisplatin+DMSO, and cisplatin+SK-124 treatment groups.
BJFF human induced pluripotent stem cells (hPSCs) were maintained on Geltrexcoated (Thermo Fisher Scientific) plates using StemFit Basic04 Complete (Ajinomoto Co. Inc.) as previously reported(25). The cells were passaged weekly using Accutase (STEMCELL Technologies) for dissociation and Y27632 (Tocris) for adhesion. Directed differentiation of hPSCs into kidney organoids has been published elsewhere (29). Briefly, hPSCs were differentiated into metanephric mesenchyme cells on day 8 by a three-step directed differentiation protocol. Metanephric mesenchyme was transferred into suspension culture in 96-well ultralow adhesion plates (Coming) and further differentiated into kidney organoids, as previously reported(25). Quality control measures of SIX2 immunostaining on day 8 of differentiation and CDH1, LTL, PODXL, CD146, MEIS1/2/3, and SYTOX-blue staining on day 21 were performed on all batches of kidney organoids to limit batch-to-batch heterogeneity. Kidney organoids were maintained in 200 μl of basal media consisting of Advanced RPMI (Thermo Fisher Scientific) and GlutaMAX (Thermo Fisher Scientific) in 96-well plates, as previously reported. Media changes were conducted three times weekly with removal of 90 [l and addition of 100 μl of fresh basal media.
(§1) For cisplatin induced injury, day 49 organoids were treated with 5 μM cisplatin in basal media after full media change. After 24 hours, full media exchanges were performed. This 24-hour treatment was performed twice a week, on day 52-53, day 56-57, day 59-60, and day 63-64 as well, for a total of five cisplatin treatments. Samples were obtained for RT-qPCR and immunostaining immediately following each 24-hour treatment with cisplatin, and from corresponding controls.
Following the treatment, the organoids were collected and immediately fixed in 4% PFA in PBS for 1 hour at room temperature, submerged in 30% sucrose overnight at 4° C., then embedded in O.C.T. Compound (4585. Fisher HealthCare). Subsequently, […] frozen sections were prepared via cryo-sectioning by a cryostat. After 1 hr blocking at room temperature, the sections were treated overnight at 4° C. with primary antibodies in antibody dilution buffer (ADB) with biotinylated LTL (1:200, B-1325, Vector), rat anti-CDH1 (1:500, ab11512, Abcam), goat anti-PODXL (1:500, AF1658, R&D Systems), as well as the antibody of interest, either mouse anti-p21 (1:200, NBP2-43697, Novus Biologicals), or rabbit anti-γH2AX (1:100, 2577, Cell Signaling) antibodies. For the optimum labeling of LTL by biotin/streptavidin interaction, the Streptavidin/Biotin Blocking Kit (SP-2002, Vector Laboratories) was applied according to the manufacturer's instructions. After washing, the samples were stained for 1 hour at RT with the nuclear dye-SYTOX Blue (1:500. S 11348, Invitrogen) and the corresponding secondary antibodies in ADB such as streptavidin-AF750 (1:500, S21384, Invitrogen), donkey anti-rat IgG-AF594 (1:500, A21209, Invitrogen), donkey anti-goat IgG-AF555 (1:500, A21432, Invitrogen), and donkey anti-rabbit IgG-AF488 (1:500, A21206, Invitrogen) for γH2AX or donkey anti-mouse IgG-AF488 (1:500, A21202, Invitrogen) for p21 antibodies as well as mouse anti-Meisl/⅔ (1:200, sc-101850, SantaCruz) conjugated antibody, and slides were mounted with Vectashield antifade mounting medium (H1000, Vector Laboratories). […]

human kidney organoids [2] = assay: P21, gammaH2AX and LTL immunostaining in cisplatin-injured human kidney organoids; assay type: cell-based; details: for gammaH2AX induction: cisplatin; for gammaH2AX induction / P21 expression: concurrent SK-124 (FIG. 9); for LTL-positive proximal tubule cells / P21 / gammaH2AX: dose response, five cisplatin cycles (FIG. 11); for P21 expression: indicated number of cisplatin cycles
Description: FIG. 9. SK-124 treatment protects from cisplatin-induced P21 induction in human kidney organoids. Organoids were treated with the indicated number of cisplatin cycles in the presence of DMSO vehicle (top) or SK-124 (bottom). Organoids were then processed for P21 immunofluorescent microscopy.
FIG. 11. SK-124 protects human kidney organoids from cisplatin injury in a dose-dependent manner. Organoids were treated with five cisplatin cycles in the presence of the indicated doses of SK-124. Subsequently, organoids were immunostained to reveal cellular composition and injury markers P21 (top panels) and gammaH2AX (bottom panels). […] Proximal tubule cells are labeled with LTL staining and are reduced by cisplatin treatment and restored by SK-124 co-treatment.
as §1
Following the treatment, the organoids were collected and immediately fixed in 4% PFA in PBS for 1 hour at room temperature, submerged in 30% sucrose overnight at 4° C., then embedded in O.C.T. Compound (4585. Fisher HealthCare). Subsequently, […] frozen sections were prepared via cryo-sectioning by a cryostat. After 1 hr blocking at room temperature, the sections were treated overnight at 4° C. with primary antibodies in antibody dilution buffer (ADB) with biotinylated LTL (1:200, B-1325, Vector), rat anti-CDH1 (1:500, ab11512, Abcam), goat anti-PODXL (1:500, AF1658, R&D Systems), as well as the antibody of interest, either mouse anti-p21 (1:200, NBP2-43697, Novus Biologicals), or rabbit anti-γH2AX (1:100, 2577, Cell Signaling) antibodies. For the optimum labeling of LTL by biotin/streptavidin interaction, the Streptavidin/Biotin Blocking Kit (SP-2002, Vector Laboratories) was applied according to the manufacturer's instructions. After washing, the samples were stained for 1 hour at RT with the nuclear dye-SYTOX Blue (1:500. S 11348, Invitrogen) and the corresponding secondary antibodies in ADB such as streptavidin-AF750 (1:500, S21384, Invitrogen), donkey anti-rat IgG-AF594 (1:500, A21209, Invitrogen), donkey anti-goat IgG-AF555 (1:500, A21432, Invitrogen), and donkey anti-rabbit IgG-AF488 (1:500, A21206, Invitrogen) for γH2AX or donkey anti-mouse IgG-AF488 (1:500, A21202, Invitrogen) for p21 antibodies as well as mouse anti-Meisl/⅔ (1:200, sc-101850, SantaCruz) conjugated antibody, and slides were mounted with Vectashield antifade mounting medium (H1000, Vector Laboratories).
Finally, the images were captured by the STELLARIS 8 confocal microscope (Leica Microsystems) using 25× water immersion objective lens. The mean diameters of the organoids were measured on the Leica Application Suite X (LAS X) software platform.

Compound	cisplatin-induced organoid atrophy (human kidney organoids [1])	organoid cellularity and size in response to cisplatin injury (human kidney organoids [1])	proximal tubule cells (human kidney organoids [1])	gammaH2AX induction (human kidney organoids [2])	LTL-positive proximal tubule cells (human kidney organoids [2])	P21 (human kidney organoids [2])	gammaH2AX (human kidney organoids [2])	P21 expression (human kidney organoids [2])
CCc1nnc(-c2c(OC)cc(-c3cnc4cc(-c5cnn(C)c5)ccn34)cc2OC)o1 [SK-124, 2-[2,6-Dimethoxy-4-[7-(1-methylpyrazol-4-yl)imidazo[1,2-a]pyridin-3-yl]phenyl]-5-ethyl-1,3,4-oxadiazole]	reduced cisplatin-induced organoid atrophy	preserves organoid cellularity and size	preserved proximal tubule cells	markedly reduced	restored; also recorded: blocked by SK-124 treatment in a dose-dependent manner	reduced by SK-124 co-treatment in a dose-dependent manner; also recorded: blocked by SK-124 treatment in a dose-dependent manner	reduced by SK-124 co-treatment in a dose-dependent manner	markedly reduced
N.N.[Cl][Pt][Cl] [cisplatin, reference compound]	–	–	proximal tubular loss	robust P21 (top) and gammaH2AX (bottom) induction	reduced; also recorded: loss of LTL-positive proximal tubule cells	robust cisplatin-induced P21 induction	induced	induces P21 expression; also recorded: robust P21 (top) and gammaH2AX (bottom) induction
